Experimental data published in patent US11980616B2, “Treating liver disease by selectively eliminating senescent cells” (Buck Institute for Research on Aging, priority 2014, dated 2024).

What was measured:
[1] = test system: senescent lung fibroblasts (Sen(IR)IMR90); experiment: Cell count survival assay, irradiation-induced senescent IMR90; format: cell-based, human; settings: 0, 2.5, 10 μM for 9 days
Procedure: (§1) Foreskin fibroblast cell lines HCA2 and BJ, lung fibroblast cell line IMR90, and mouse embryonic fibroblasts were seeded in six-well plates and induced to senesce with 10 Gy of ionizing radiation (IR) or a 24 hr treatment with doxorubicin (Doxo). Senescent phenotype was allowed to develop for at least 7 days, at which point a cell count was made to determine the baseline number of cells. Nutlin-3a treatment was then initiated for a period of at least 9 days. Media alone or media with drug as appropriate was refreshed at least every three days. At the end of the assay time period, cells are counted. Each condition was seeded in three plate wells and counted independently. Initial cell count serves as a control to determine the induction of senescence, as compared to the last day count without nutlin treatment. Initial non-senescent cell count serves as a proxy to determine Nutlin-3a toxicity.
(§2) Foreskin fibroblast cell lines HCA2 and BJ, lung fibroblast cell line IMR90, and mouse embryonic fibroblasts were exposed to 10 Gy of ionizing radiation (IR) to induce senescence. […] Percent survival was calculated as [cell count on day 9 of Nutlin-3a treatment/initial cell count on first day of Nutlin-3a treatment].

[2] = test system: senescent mouse embryonic fibroblasts (MEF); experiment: Cell count survival assay, irradiation-induced senescent MEF; format: cell-based; settings: irradiated MEF; 0, 2.5, 10 μM for 9 days
Procedure: as §1, §2

[3] = test system: non-senescent foreskin fibroblasts (Non Sen HCA2); experiment: Cell count toxicity assay, non-senescent HCA2; format: cell-based; settings: 0, 2.5, 10 μM, 9 days
Procedure: as §1
Non-senescent foreskin fibroblasts (HCA2), lung fibroblasts (IMR90), and mouse embryonic fibroblasts (MEF) were treated with varying concentrations (0, 2.5 μM, and 10 μM) of Nutlin-3a for a period of 9 days to assess Nutlin-3a toxicity. Cell counts were taken at the start (NS start) and end of Nutlin-3a treatment. The difference between counts of cells not treated with Nutlin-3a on day 9 (NS 0) and cell counts determined at day zero (NS start) reflects the cell growth over the indicated time period. […]

[4] = test system: senescent foreskin fibroblasts (Sen(IR)BJ); experiment: Cell count survival assay, irradiation-induced senescent BJ; format: cell-based; settings: 0, 2.5, 10 μM for 9 days
Procedure: as §1, §2

[5] = test system: IL-6 secretion by senescent IMR90 cells; experiment: IL-6 secretion ELISA in irradiated senescent IMR90 cells; format: cell-based, human; settings: 10 μM for nine days, then six days without drug; ELISA normalized to cell number
Procedure: In another experiment, IMR90 cells were induced to senesce by irradiation (10 Gy). Seven days after irradiation, cells were treated with 10 μM Nutlin-3a or vehicle (DMSO) for nine days (Day 9). The drug or vehicle was refreshed every three days. Drug/vehicle was removed at Day 9 and the cells were cultured for an additional six days. Conditioned media from the treated cells was collected, and IL-6 measurement by ELISA was performed (Perkin Elmer, AL223F). IL-6 levels in culture media were determined by ELISA using a kit according to manufacturer's instructions (AL223F, Perkin Elmer). Cells were fixed with 4% paraformaldehyde and stained by immunofluorescence with a specific anti-IL-6 antibody (R&D, AF-206-NA). The IL-6 level determined by ELISA was normalized to the number of cells in each well. The data are presented in FIG. 22C as a relative level of IL-6 in the treated cells compared to the level in non-senescent cells (NS). The data are presented as an average of three different cell samples.

[6] = test system: LDLR-/-/3MR double transgenic mice; experiment: Mature atherosclerotic plaques in LDLR-/-/3MR mice, 100 day treatment period; format: in vivo, mouse; settings: vs LDLR-/- control
Procedure: The impact of clearance of senescent cells on the stability and size of mature atherosclerotic plaques was studied in LDLR^−/−/3MR double transgenic mice. From 10 weeks of age, LDLR^−/−/3MR double transgenic mice (10 weeks) and LDLR^−/− single transgenic mice (control) were fed a high fat diet (Harlan Teklad TD.88137) having 42% calories from fat beginning at Week 0 until Week 12.5, when the mice were switched to normal chow diet. Both groups of mice were treated with ganciclovir from week 12.5 over the next 100 days, with each treatment cycle comprising 5 days of ganciclovir (25 mg/kg intraperitoneally daily) and 14 days off. At the end of the 100 day treatment period, the mice were sacrificed, plasma and tissues were collected, and atherosclerosis was quantitated. Descending aortas were dissected and stained with Sudan IV to visualize the plaque lipids. […] Plaques from ganciclovir-treated LDLR^−/− control and LDLR^−/−/3MR mice (see dashed circled plaques in FIGS. 55A-B, respectively) were harvested and cut into cross-sections and stained with […] the general architecture of the atherosclerotic plaques. “#” indicates fat located on the outside of the aorta (see FIG. 55A). The plaques marked with an “*” and “**” in FIGS. 55A and B, respectively, are shown as stained cross-sections in FIGS. […], respectively. […] The plaque from the control mice has identifiable “lipid pockets” accumulating within. […] Disruption or tear in the cap of a lipid-rich plaque is a trigger for coronary events through exposure of plaque thrombogenic components to platelets and clotting components of the blood. Plaques that grow more rapidly as a result of rapid lipid deposition and have thin fibrin caps are prone to rupture. Slowly growing plaques with mature fibrin caps tend to stabilize and are not prone to rupture. Taken together, these experiments indicate that removal of senescent cells may affect atherosclerotic plaque architecture and have a stabilizing effect.

[7] = test system: LDLR-/-/3MR double transgenic mice fed a HFD; experiment: Atherosclerosis model, LDLR-/-/3MR double transgenic mice fed a HFD; format: in vivo, mouse; settings: vs LDLR-/- HFD controls
Procedure: The study illustrated in FIG. 43B assessed the extent to which […] based clearance of senescent cells from LDLR^−/−/3MR double transgenic mice improves pre-existing atherogenic disease. LDLR^−/−/3MR double transgenic mice (10 weeks) and LDLR^−/− single transgenic mice (10 weeks) are fed a high fat diet beginning at Week 0 until Week 12. Gancyclovir is administered to both groups of mice (25 mg/kg intraperitoneally) from weeks 12-13 and weeks 14-15. At week 16, the level of plaque and the number of senescent cells in the plaques are determined.

| SMILES | Percent survival [1] | Percent survival [2] | Proliferation (percent growth) [3] | Toxicity (cell number vs starting level) [3] | Percent survival [4] | IL-6 level, fold lower than DMSO treated cells [5] | Atherosclerotic plaques in descending aorta (Sudan IV staining) ([6]; 25 mg/kg i.p. 5 days on, 14 days off, 100 days) | % of the aorta covered in plaques (area of Sudan IV staining) ([6]; 100 day treatment) | Plaque morphology (cross-sections) ([6]; 100 day treatment) | % of the aorta covered with plaque ([7]; 25 mg/kg i.p. weeks 12-13 and 14-15) | Plaque cross-sectional area ([7]; 25 mg/kg i.p.) |
| --- | --- | --- | --- | --- | --- | --- | --- | --- | --- | --- | --- |
| COc1ccc(C2=N[C@@H](c3ccc(Cl)cc3)[C@@H](c3ccc(Cl)cc3)N2C(=O)N2CCNC(=O)C2)c(OC(C)C)c1 [Nutlin-3a] | reduced cell survival | reduced cell survival | reduces proliferation | non-toxic | reduced cell survival | 5-9 fold | – | – | – | – | – |
| Nc1nc(O)c2ncn(COC(CO)CO)c2n1 [ganciclovir] | – | – | – | – | – | – | fewer atherosclerotic plaques with less intense staining | significantly lower | presence of a thick fibrin cap and the absence of lipid pockets | reduces the % of the aorta covered with plaque | reduced the plaque cross-sectional area |
